The source of these data is patent US20240336926A1, “PHARMACEUTICAL COMPOSITION FOR TREATING TRIPLE NEGATIVE BREAST CANCER, CONTAINING NON-NATURAL NUCLEIC ACID LIGAND AS ACTIVE INGREDIENT” (INTEROLIGO CORPORATION, priority 2021, published 2024).

Data set [1] can be described thus: Serum half-life in human serum (urea-PAGE band intensity). The data set is classed as in vitro ADME. To be noted: 96% human serum, 37° C.; ligands with biotin conjugated to the 5′-end. As for the experimental part: The stabilized nucleic acid ligand was added to the 96% human serum and then reacted at 37° C. for 0, 3, 6, 9, 12, 15, and 18 hours, thereby inducing the degradation of the nucleic acid ligand. After each of the reaction times, the nuclease was inactivated by heating at 85° C., and electrophoresis was performed on a 10% urea-polyacrylamide gel. A control without the addition of human serum was included as a loading control, and the band intensities of the control and the test groups were measured. The intensity trend line over time was determined using the measurement values, and the intensity value was inserted into the trend equation to obtain the half-life.

For data set [2], the target named is human serum albumin (HSA) (Homo sapiens, UniProt P02768). The data set is described as follows: ELISA binding affinity (Kd) for 1st target. For orientation: An ELISA detects its analyte on a solid surface through an enzyme-linked reagent.
Chain of human serum albumin (HSA) (P02768 25-609): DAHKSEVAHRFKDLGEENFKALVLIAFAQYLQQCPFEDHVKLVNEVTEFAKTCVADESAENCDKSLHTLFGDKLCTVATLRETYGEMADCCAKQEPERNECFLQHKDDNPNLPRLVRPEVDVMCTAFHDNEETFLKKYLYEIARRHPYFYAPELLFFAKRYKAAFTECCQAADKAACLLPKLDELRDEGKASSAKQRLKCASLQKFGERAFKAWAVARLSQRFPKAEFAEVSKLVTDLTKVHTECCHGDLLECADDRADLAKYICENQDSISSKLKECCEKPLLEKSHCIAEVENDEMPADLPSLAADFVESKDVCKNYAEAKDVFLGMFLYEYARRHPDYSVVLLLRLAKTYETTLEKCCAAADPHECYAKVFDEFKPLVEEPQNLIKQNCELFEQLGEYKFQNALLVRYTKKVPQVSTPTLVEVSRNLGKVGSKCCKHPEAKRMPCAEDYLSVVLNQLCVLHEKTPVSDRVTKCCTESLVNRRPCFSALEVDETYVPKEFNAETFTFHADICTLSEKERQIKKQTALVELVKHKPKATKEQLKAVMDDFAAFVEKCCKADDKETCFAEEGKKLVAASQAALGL
The next data set deals with K-RAS G12D protein (Homo sapiens, UniProt P01116, G12D). The data set is described as follows: ELISA binding affinity (Kd) for 2nd target. To be noted: read-out: Biding affinity for 2nd target Kd, ligands with biotin conjugated to the 5′-end.

Usually Kd stands for a measure of binding affinity in units of concentration.

Read-outs that look alike come from different tables or passages of the source. [NapdU] = 5-(N-(1-naphthylmethyl)carboxamide)-2'-deoxyuridine (Nap-dU)

Experimental for K-RAS G12D protein: The binding affinity of the nucleic acid ligands were measured using enzyme linked immunosorbent assay (ELISA).
The test method was composed of the following steps. • 1) A target protein was coated on a microplate at a low temperature for 16 hours. • 2) The surface of the microplate was blocked by reaction at room temperature for 1 hour using Blocking Buffer (Pierce™ Protein-Free (PBS) Blocking Buffer, Thermo Scientific, USA). • 3) The microplate was treated with a nucleic acid ligand, followed by reaction at 37° C. for 1 hour. • 4) For enzyme conjugation, the microplate was treated with a streptavidin-horseradish peroxidase (HRP) conjugate (Thermo Scientific, USA), followed by reaction at room temperature for 1 hour. • 5) The microplate was treated with TMB substrate solution (Thermo Scientific, USA), followed by reaction at room temperature for 30 minutes. • 6) The microplate was treated with a reaction termination solution (2 M sulfuric acid). • 7) The absorbance was measured at 450 nm using GloMax plate meter (Promega, USA).
The target protein and the nucleic acid ligand were each used at 4-fold dilution starting from 500 nM.

As to “AD005: truncated nucleic acid ligand GAC6AGCA6AAG6CCGGA6GGCAGC666A6GCCGACCA6, 6 = Nap-dU (DNA GACNAGCANAAGNCCGGANGGCAGCNNNANGCCGACCAN; Nap-dU modified bases; modified_base 4 OTHER; 5-(N-(1-naphthylmethyl)carboxamide)-2-deoxyuridine; modified_base 9 OTHER; 5-(N-(1-naphthylmethyl)carboxamide)-2'-deoxyuridine(Nap-dU); modified_base 13 OTHER; modified_base 19 OTHER; modified_base 26..28 OTHER; 5-(N-(1-naphthylmethyl)carboxamide)-2'-deox)”, in data set [1], the “Serum half-life t½” value stood at 30.1 h. In addition, the equilibrium dissociation constant (Kd) in data set [2] (HSA, ELISA, ligands with biotin conjugated to the 5′-end, read-out: Biding affinity for 1st target Kd) came to 122 nM; with K-RAS G12D protein, 22.9 nM.

Regarding “AD007: truncated nucleic acid ligand GCA6AAG6CCGGA6GGCAGC666A6GCCGACC, 6 = Nap-dU (DNA GCAUAAGUCCGGAUGGCAGCUUUAUGCCGACC; aptamer; DNA, [NapdU] at 4, 8, 14, 21, 22, 23, 25, backbone and methylation of C not given here)”, the Kd turned out to be 536 nM in data set [2] and 152 nM with K-RAS G12D protein.

Take “AD008: truncated nucleic acid ligand GCA6AAG6CCGGA6GGCAGC666A6GC, 6 = Nap-dU (DNA GCAUAAGUCCGGAUGGCAGCUUUAUGC; aptamer; DNA, [NapdU] at 4, 8, 14, 21, 22, 23, 25, backbone and methylation of C not given here)”: the Kd turned out to be 66.9 nM in data set [2] and 287 nM with K-RAS G12D protein.

As to “AD004: truncated nucleic acid ligand GCCTGGAC6AGCA6AAG6CCGGA6GGCAGC666A6GCCGACCA6CAGCC, 6 = Nap-dU (DNA GCCTGGACUAGCAUAAGUCCGGAUGGCAGCUUUAUGCCGACCAUCAGCC; aptamer; DNA, [NapdU] at 9, 14, 18, 24, 31, 32, 33, 35, 44, backbone and methylation of C not given here)”, the Kd in data set [2] stood at 190 nM; with K-RAS G12D protein, 16.6 nM.

On to “AD006: truncated nucleic acid ligand GAC6AGCA6AAG6CCGGA6GGCAGC666A6GCCG, 6 = Nap-dU (DNA GACUAGCAUAAGUCCGGAUGGCAGCUUUAUGCCG; aptamer; DNA, [NapdU] at 4, 9, 13, 19, 26, 27, 28, 30, backbone and methylation of C not given here)”, for which the figures for the Kd (in data set [2]; with K-RAS G12D protein) were 939 nM and 77.6 nM, respectively.
